Experimental data as given in patent publication US10751358B2, “Multitargeted nucleoside derivatives” (priority 2017, dated 2020).

How the values were obtained:
ACHN = test: NCI panel growth inhibition, ACHN; format: cell-based; conditions: Homo sapiens, 10 micromolar
Source text: (§1) A sample of the variety of human cancer cell lines, whose growth was inhibited more than 50% by 10 micromolar concentration of the prototype drug 6a, is shown in Table 2.
(§2) The description of the human cancer cell lines used is as follows: ACHN, human renal adenocarcinoma; HL-60(TB), human acute myeloid leukemia; HCT-116, human colon carcinoma; HOP-62, human adenocarcinoma (non-small cell lung cancer); M14, human metastatic malignant melanoma; MCF7, human mammary adenocarcinoma; OVCAR-8, human ovarian carcinoma.

HL60 = test: NCI panel growth inhibition, HL60; format: cell-based; conditions: Homo sapiens, HL-60, 10 micromolar
Source text: as §1, §2

NCI-H522 = test: NCI panel growth inhibition, NCI-H522; format: cell-based; conditions: Homo sapiens, 10 micromolar
Source text: as §1, §2

HCT-116 = test: NCI panel growth inhibition, HCT-116; format: cell-based; conditions: Homo sapiens, 10 micromolar
Source text: as §1, §2

M14 = test: NCI panel growth inhibition, M14; format: cell-based; conditions: Homo sapiens, 10 micromolar
Source text: as §1, §2

MCF-7 = test: NCI panel growth inhibition, MCF-7; format: cell-based; conditions: Homo sapiens, MCF7, 10 micromolar
Source text: as §1, §2

OVCAR-8 = test: NCI panel growth inhibition, OVCAR-8; format: cell-based; conditions: Homo sapiens, 10 micromolar
Source text: as §1, §2

[1] = system: KG-1 human acute myeloid leukemia cells; test: Cell viability assay of Promega, KG-1 cells; format: cell-based; conditions: for IC50: Homo sapiens, cell viability; for Ratio (IC50-value of capecitabine/IC50-value of test compound): fold potency versus capecitabine
Source text: Using the cell viability assay of Promega, the following IC50-values were obtained against KG-1 human acute myeloid leukemia cells (Table 3). The nucleoside carbamate capecitabine (Xeloda®) is included for comparison).

[2] = system: human colon cancer HCT-116 cells; test: HCT-116 xenograft test for in vivo oral anticancer activity; set-up: species or system mice
Source text: This example provides a description of HCT-116 xenograft test for in vivo oral anticancer activity of 6a.
Forty athymic nude mice (NCr nude, female, 5-6 weeks old, 20-25 g, Taconic) were inoculated with 6×10^6 exponentially growing human colon cancer HCT-116 cells, 1:1 ratio with Matrigel in 100 microliter into the right flank. Over the following 10 days, tumors reached a volume of 70 to 130 mm^3. Tumor volume were caliper-measured and calculated as length×width×width/2. Thirty mice were randomly allocated into three groups: (1) vehicle control group, (2) 6a test group, and (3) capecitabine (Cayman Chemical Co.) positive control group, with 10 mice into each group. Dosing solutions of each were prepared and kept refrigerated during the course of the test. Each mouse was dosed daily by oral administration.
After starting the dosing, body weights and tumor size measurements were recorded twice weekly to the end of the test.

[3] = system: National Cancer Institute's panel of human cell lines; test: National Cancer Institute's panel of human cell lines in culture; format: cell-based; conditions: 10 micromolar, cell lines of Table 2, read-out: growth inhibition of the sampled human cancer cell lines
Source text: as §1

[4] = biological target: T1, ribonucleotide reductase (RR) (Homo sapiens, UniProt P23921); test: Enzyme inhibition by intracellular metabolite: ribonucleotide reductase; format: biochemical; conditions: major target; inactivation by covalent bond formation at the active site
T1 sequence (P23921 1-792): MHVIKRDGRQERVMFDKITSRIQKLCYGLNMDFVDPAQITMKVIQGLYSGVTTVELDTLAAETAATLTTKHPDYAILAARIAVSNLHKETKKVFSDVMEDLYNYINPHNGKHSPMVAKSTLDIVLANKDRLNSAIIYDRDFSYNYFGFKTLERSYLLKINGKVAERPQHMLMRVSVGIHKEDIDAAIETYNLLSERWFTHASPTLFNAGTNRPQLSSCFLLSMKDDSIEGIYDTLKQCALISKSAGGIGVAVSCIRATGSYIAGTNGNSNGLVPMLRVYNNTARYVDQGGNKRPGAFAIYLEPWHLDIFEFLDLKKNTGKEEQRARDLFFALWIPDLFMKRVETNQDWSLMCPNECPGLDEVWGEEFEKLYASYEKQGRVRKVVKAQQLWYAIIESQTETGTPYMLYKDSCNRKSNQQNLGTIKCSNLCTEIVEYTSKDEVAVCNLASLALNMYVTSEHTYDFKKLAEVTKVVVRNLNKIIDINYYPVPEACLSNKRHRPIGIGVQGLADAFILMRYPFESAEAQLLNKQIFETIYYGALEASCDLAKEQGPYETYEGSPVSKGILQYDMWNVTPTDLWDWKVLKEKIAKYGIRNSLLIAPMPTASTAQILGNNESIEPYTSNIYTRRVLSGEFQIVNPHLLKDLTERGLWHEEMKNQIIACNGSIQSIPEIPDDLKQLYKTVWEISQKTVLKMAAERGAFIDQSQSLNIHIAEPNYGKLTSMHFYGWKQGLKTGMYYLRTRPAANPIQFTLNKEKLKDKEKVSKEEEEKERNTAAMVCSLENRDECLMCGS
T1 sequence (P31350 1-389 partner): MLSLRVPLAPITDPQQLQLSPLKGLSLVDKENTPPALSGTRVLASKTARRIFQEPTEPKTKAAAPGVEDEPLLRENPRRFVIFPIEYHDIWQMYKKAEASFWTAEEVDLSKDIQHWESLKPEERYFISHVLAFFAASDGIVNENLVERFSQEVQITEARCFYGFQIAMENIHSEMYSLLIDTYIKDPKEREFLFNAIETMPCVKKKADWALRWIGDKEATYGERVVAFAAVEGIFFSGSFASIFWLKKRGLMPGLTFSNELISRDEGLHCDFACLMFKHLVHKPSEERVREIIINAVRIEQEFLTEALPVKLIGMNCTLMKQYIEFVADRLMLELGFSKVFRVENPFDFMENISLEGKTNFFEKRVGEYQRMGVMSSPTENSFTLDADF
Source text: (§3) Several intracellular targets of the present disclosure were identified as essential enzymes required for the biosynthesis and function of DNA. These enzymes are susceptible for inhibition by a multitude of cellular metabolites of the present disclosure, contributing to the observed cytotoxicity.
(§4) The inhibition of the enzyme targets, TS, RR, and MTase is irreversible, due to mechanism-based inactivation caused by the inhibitory metabolites. The molecular mechanism of the inactivation involves covalent bond formation with the sulfhydryl groups of the active site cysteine residues essential for enzyme activity (see Examples 6, 7 and 8).
F3dCDP acts as a suicide substrate of the enzyme forming a binary complex between the inhibitor and the enzyme via a covalent bond to the SH-group of the active site cysteine residue: […]

[5] = biological target: T2, DNA polymerase alpha (Pol α) (Homo sapiens, UniProt P09884); test: Enzyme inhibition by intracellular metabolites: DNA polymerase alpha; format: biochemical; conditions: major target; inhibition by DNA chain termination and/or DNA fragmentation
T2 sequence (P09884 1-1462): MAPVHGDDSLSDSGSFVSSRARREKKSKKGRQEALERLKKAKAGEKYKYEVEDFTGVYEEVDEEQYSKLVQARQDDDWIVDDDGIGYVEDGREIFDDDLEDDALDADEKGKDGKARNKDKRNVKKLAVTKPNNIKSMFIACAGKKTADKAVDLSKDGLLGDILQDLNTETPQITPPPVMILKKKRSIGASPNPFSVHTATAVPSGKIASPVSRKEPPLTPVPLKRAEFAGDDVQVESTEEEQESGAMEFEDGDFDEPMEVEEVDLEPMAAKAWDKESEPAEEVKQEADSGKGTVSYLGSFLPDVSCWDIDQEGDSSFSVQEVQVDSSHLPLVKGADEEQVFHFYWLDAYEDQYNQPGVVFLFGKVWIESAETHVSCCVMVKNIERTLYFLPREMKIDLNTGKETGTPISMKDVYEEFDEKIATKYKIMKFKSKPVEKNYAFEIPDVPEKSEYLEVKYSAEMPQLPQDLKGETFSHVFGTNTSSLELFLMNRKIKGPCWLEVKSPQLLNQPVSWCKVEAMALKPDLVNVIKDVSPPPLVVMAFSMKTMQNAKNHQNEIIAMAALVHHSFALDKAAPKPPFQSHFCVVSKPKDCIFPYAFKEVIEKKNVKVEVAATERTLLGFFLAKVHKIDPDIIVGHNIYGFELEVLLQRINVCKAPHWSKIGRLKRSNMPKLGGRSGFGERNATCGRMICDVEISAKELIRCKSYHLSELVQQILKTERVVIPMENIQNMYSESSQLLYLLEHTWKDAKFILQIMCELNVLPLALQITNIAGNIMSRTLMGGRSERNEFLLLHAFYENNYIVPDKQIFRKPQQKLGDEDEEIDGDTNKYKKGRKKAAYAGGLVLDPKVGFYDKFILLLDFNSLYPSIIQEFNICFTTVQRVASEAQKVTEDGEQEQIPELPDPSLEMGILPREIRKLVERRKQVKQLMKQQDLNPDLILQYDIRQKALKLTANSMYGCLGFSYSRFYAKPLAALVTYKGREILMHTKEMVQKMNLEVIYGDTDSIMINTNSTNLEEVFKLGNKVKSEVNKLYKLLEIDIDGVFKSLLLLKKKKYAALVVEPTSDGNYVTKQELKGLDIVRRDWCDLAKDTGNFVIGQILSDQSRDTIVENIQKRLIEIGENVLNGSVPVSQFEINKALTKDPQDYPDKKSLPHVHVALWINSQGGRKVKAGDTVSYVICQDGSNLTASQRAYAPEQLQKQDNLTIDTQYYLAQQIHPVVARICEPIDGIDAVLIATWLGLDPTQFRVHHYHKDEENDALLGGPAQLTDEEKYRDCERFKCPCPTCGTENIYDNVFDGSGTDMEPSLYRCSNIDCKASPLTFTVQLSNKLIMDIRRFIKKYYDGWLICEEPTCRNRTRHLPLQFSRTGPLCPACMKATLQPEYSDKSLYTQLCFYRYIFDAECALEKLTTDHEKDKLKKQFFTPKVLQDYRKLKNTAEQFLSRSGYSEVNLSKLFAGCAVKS
Source text: as §3

[6] = biological target: T3, deoxycytidylate deaminase (DCTD) (Homo sapiens, UniProt P32321); test: Enzyme inhibition by intracellular metabolite: deoxycytidylate deaminase; format: biochemical; conditions: minor target
T3 sequence (P32321 1-178): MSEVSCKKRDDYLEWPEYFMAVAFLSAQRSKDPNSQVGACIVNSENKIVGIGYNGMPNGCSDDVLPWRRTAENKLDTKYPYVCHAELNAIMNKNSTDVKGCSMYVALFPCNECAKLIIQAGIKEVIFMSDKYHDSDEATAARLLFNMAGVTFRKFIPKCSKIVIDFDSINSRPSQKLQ
Source text: as §3
Intracellular esterase hydrolysis of the 5′-substituent of Formula I (R″=phosphorodiamidate), followed by cyclization leads to a cyclic phosphoester intermediate that collapses into a monophosphoramidate. Further hydrolysis by the phosphoramidase activity of HINT1 results in the formation of F3dCMP, the first intracellular phosphorylated metabolite of compounds of Formula I that serves as a substrate and competitive inhibitor of the enzyme dCMP deaminase, and is a precursor of all the other inhibitory nucleotides described above (see Table 1).

[7] = biological target: thymidylate synthase (TS) (Homo sapiens, UniProt P04818); test: Enzyme inhibition by intracellular metabolite: thymidylate synthase; format: biochemical; conditions: major target; inactivation by covalent bond formation at the active site
thymidylate synthase (TS), sequence (P04818 whole entry): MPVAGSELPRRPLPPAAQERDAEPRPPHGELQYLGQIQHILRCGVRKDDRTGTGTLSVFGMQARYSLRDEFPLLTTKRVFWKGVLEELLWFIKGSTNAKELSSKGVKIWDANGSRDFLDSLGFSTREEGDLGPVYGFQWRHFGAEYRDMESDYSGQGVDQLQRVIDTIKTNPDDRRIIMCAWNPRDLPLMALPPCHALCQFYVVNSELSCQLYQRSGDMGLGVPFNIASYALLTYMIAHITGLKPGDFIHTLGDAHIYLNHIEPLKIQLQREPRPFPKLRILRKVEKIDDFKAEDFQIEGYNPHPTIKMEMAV
Source text: as §3, §4
F3dUMP acts as a suicide substrate of the enzyme thymidylate synthase by forming a covalent ternary complex with the enzyme and the cofactor 5,10-methylenetetrahydrofolate. The binding of the inhibitor to the enzyme is by a covalent bond to the SH-group of the active site cysteine residue involved in catalysis: […]

## CCCCCOC(=O)Nc1nc(=O)n([C@@H]2O[C@H](CO)[C@@H](O)C2(F)F)cc1F [Compound 6a, N^4-Pentyloxycarbonyl-2′-deoxy-2′,2′,5-trifluorocytidine]
ACHN
  inhibition at 10 µM: 86.4%
HL60
  inhibition at 10 µM: 75.8%
NCI-H522
  inhibition at 10 µM: 61.1%
HCT-116
  inhibition at 10 µM: 63.5%
M14
  inhibition at 10 µM: 85.9%
MCF-7
  inhibition at 10 µM: 51.9%
OVCAR-8
  inhibition at 10 µM: 71.6%
[1]
  IC50: 129 ± 10.7 nM
  Ratio (IC50-value of capecitabine/IC50-value of test compound): 69
[2]; athymic nude mice, daily oral dosing, 25 mg/kg
  in vivo oral anticancer activity (growth of human colon cancer in mice): orally active in vivo
[3]
  inhibition at 10 µM: > 50%

## Nc1nc(=O)n([C@@H]2O[C@H](CO)[C@@H](O)C2(F)F)cc1F [Compound 5, 2′-Deoxy-2′,2′,5-trifluorocytidine]
[1]
  IC50: 34.1 ± 5.27 nM
  Ratio (IC50-value of capecitabine/IC50-value of test compound): 253

## Nc1nc(=O)n([C@@H]2O[C@H](COP(=O)(O)OP(=O)(O)O)[C@@H](O)C2(F)F)cc1F [Compound F3dCDP, 2′,2′,5-trifluorodeoxycytidine diphosphate]
[4]
  Reversibility of inhibition of RR: Irreversible*

## O=c1[nH]c(=O)n([C@@H]2O[C@H](COP(=O)(O)OP(=O)(O)OP(=O)(O)O)[C@@H](O)C2(F)F)cc1F [Compound F3dUTP, 2′,2′,5-trifluorodeoxyuridine triphosphate]
[5]
  Reversibility of inhibition of Pol α: Irreversible**

## O=c1[nH]c(=O)n([C@H]2C[C@H](O)[C@@H](CO)O2)cc1C(F)(F)F [Compound F3dUrd]
Thymidine phosphorylase
  substrate activity for thymidine phosphorylase (cleavage to produce FU): did not serve as a substrate for thymidine phosphorylase

## Nc1nc(=O)n([C@@H]2O[C@H](COP(=O)(O)OP(=O)(O)OP(=O)(O)O)[C@@H](O)C2(F)F)cc1F [Compound F3dCTP, 2′,2′,5-trifluorodeoxycytidine triphosphate]
[5]
  Reversibility of inhibition of Pol α: Irreversible**

## Nc1nc(=O)n([C@@H]2O[C@H](COP(=O)(O)O)[C@@H](O)C2(F)F)cc1F [Compound F3dCMP, 2′,2′,5-trifluorodeoxycytidine monophosphate]
[6]
  Reversibility of inhibition of DCTD: reversible

## O=c1[nH]c(=O)n([C@H]2C[C@H](O)[C@@H](CO)O2)cc1F [Floxuridine, reference compound]
Thymidine phosphorylase
  substrate activity for thymidine phosphorylase (cleavage to produce FU): rapidly cleaved by thymidine phosphorylase to produce FU

## CCCCCOC(=O)Nc1nc(=O)n([C@@H]2O[C@H](C)[C@@H](O)[C@H]2O)cc1F [Capecitabine, capecitabine, reference compound]
[1]
  IC50: 8920 ± 1540 nM
  Ratio (IC50-value of capecitabine/IC50-value of test compound): 1
[2]; capecitabine 100 mg/kg vs 6a 25 mg/kg, oral
  dose of capecitabine required for anticancer activity comparable to 6a, relative to dose of 6a: about 4 times

## O=c1[nH]c(=O)n([C@@H]2O[C@H](COP(=O)(O)O)[C@@H](O)C2(F)F)cc1F [Compound F3dUMP, 2′,2′,5-trifluorodeoxyuridine monophosphate]
[7]
  Reversibility of inhibition of TS: Irreversible*
